Key:
Format in all cases: in vivo, human
[1] = test system: panel of 10 persons; experiment: Organoleptic taste evaluation of LAE (200 ppm) with masking agents in carbonated juice drink; details: scale 1-no taste to 7-unbearable taste
Procedure: The combination of the test compound neohespiridin (NHDC) with LAE was investigated in a carbonated oral juice drink (a base sugar syrup with concentrated organic juice, manufactured by […] control solution of 200 ppm LAE in the juice drink was prepared. The test samples were prepared by direct dissolution of the test compound in the control solution. The test samples were compared with the control solution and with an untreated (blank) juice drink. The evaluation of the taste was based on the article titled “Reduction of saltiness and bitterness after a chlorhexidine rinse”, Chem. Senses 26: 105-116 (2001). […] The organoleptic studies were performed with a panel of 10 persons who were trained in experiments involving the tasting of bitter constituents. The panel was asked to compare samples containing a cationic surfactant alone or combined with one or more masking agent. The members of the panel were asked to indicate which sample was less bitter, thereby taking into account the scale of values defined as given above. The combination of LAE with only one masking agent, NAF®, was compared with a combination of several masking agents (one of these being NAF®) in carbonated orange juice drinks. The manner of determination of the organoleptic results is the same as described in example 1. The results are reported in the following table 3 where a solution A is compared with a solution B. Composition of solutions (all containing 200 ppm LAE): […] Different types of NAF® are investigated ([…] lemon, NAF® C Orange, etc., all produced by Ogawa). The carbonated orange juice drink is produced by Hausmann S.A.

[2] = test system: panel of 10 persons; experiment: Taste masking effect on MDLA (200 ppm) in carbonated juice drink; details: scale 1-no taste to 7-unbearable taste
Procedure: The evaluation of the taste was based on the article titled “Reduction of saltiness and bitterness after a chlorhexidine rinse”, Chem. Senses 26: 105-116 (2001). […] The organoleptic studies were performed with a panel of 10 persons who were trained in experiments involving the tasting of bitter constituents. The panel was asked to compare samples containing a cationic surfactant alone or combined with one or more masking agent. The members of the panel were asked to indicate which sample was less bitter, thereby taking into account the scale of values defined as given above.

[3] = test system: consumer; experiment: Organoleptic experiments (beverages, toothpaste, food matrix, cosmetic preparation); details: for neutralisation of the bitter taste of the cationic surfactant: high doses, combined with a cationic surfactant of formula (1), numerous experiments
[4] = test system: panel of 10 persons; experiment: Determination of the taste in toothpaste containing LAE (7,500 ppm); details: scale 1-no taste to 7-unbearable taste
Procedure: The evaluation of the taste was based on the article titled “Reduction of saltiness and bitterness after a chlorhexidine rinse”, Chem. Senses 26: 105-116 (2001). […] The organoleptic studies were performed with a panel of 10 persons who were trained in experiments involving the tasting of bitter constituents. The panel was asked to compare samples containing a cationic surfactant alone or combined with one or more masking agent. The members of the panel were asked to indicate which sample was less bitter, thereby taking into account the scale of values defined as given above. Determination of the taste in toothpaste. The toothpaste used is a standard opaque […] prepared by the addition of (in g): [table] […] A control sample contained LAE in a concentration of 7,500 ppm. The same concentration of LAE was present in all further investigated samples. […] The sweetening agents sorbitol and lactilol were investigated in the same test as described in example 11. The samples were prepared in similar manner, the concentration of LAE was 7,500 ppm.

[5] = test system: panel of 10 persons; experiment: Determination of the taste masking in toothpaste containing MDLA (7,500 ppm); details: product 3,330 ppm + 7,500 ppm MDLA in toothpaste; scale 1-no taste to 7-unbearable taste
Procedure: The evaluation of the taste was based on the article titled “Reduction of saltiness and bitterness after a chlorhexidine rinse”, Chem. Senses 26: 105-116 (2001). […] The organoleptic studies were performed with a panel of 10 persons who were trained in experiments involving the tasting of bitter constituents. The panel was asked to compare samples containing a cationic surfactant alone or combined with one or more masking agent. The members of the panel were asked to indicate which sample was less bitter, thereby taking into account the scale of values defined as given above. Determination of the taste masking in toothpaste. The toothpaste used was produced in the manner described in example 11.

[6] = test compound 10,000 ppm + 200 ppm MDLA in juice drink
[7] = test compound 10,000 ppm + 200 ppm LAE in juice drink
[8] = test compound 60,000 ppm + 200 ppm LAE in juice drink
[9] = test compound 1,000 ppm + 200 ppm MDLA in juice drink
[10] = test compound 500 ppm + 200 ppm LAE in juice drink
[11] = test compound 1,000 ppm + 200 ppm LAE in juice drink
[12] = sweetening agent 200,000 ppm + 7,500 ppm LAE in toothpaste

## COc1ccc(CCC(=O)c2c(O)cc(O[C@@H]3O[C@H](CO)[C@@H](O)[C@H](O)[C@H]3O[C@@H]3O[C@@H](C)[C@H](O)[C@@H](O)[C@H]3O)cc2O)cc1O [NHDC]
[1]; test compound 1 ppm + 200 ppm LAE in juice drink
  Organoleptic results: 2.5

## OC[C@H]1O[C@@](CO)(O[C@H]2O[C@H](CO)[C@@H](O)[C@H](O)[C@H]2O)[C@@H](O)[C@@H]1O [sugar]
[2]; [6]
  Organoleptic results: 5.1
[1]; [7]
  Organoleptic results: 5.0
[1]; [8]
  Organoleptic results: 4.8
[3]
  neutralisation of the bitter taste of the cationic surfactant: does not neutralise the bitter taste

## OC[C@H]1O[C@H](O[C@]2(CCl)O[C@H](CCl)[C@@H](O)[C@@H]2O)[C@H](O)[C@@H](O)[C@H]1Cl [Sucralose, sucralose]
[1]; test compound 5 ppm + 200 ppm LAE in juice drink
  Organoleptic results: 2.7

## CCCCCCCCCCCC(=O)N[C@@H](CCCN=C(N)N)C(=O)OCC.Cl [LAE, ethyl ester of the lauramide of the arginine monohydrochloride]
[4]; Control: 7,500 ppm LAE in toothpaste, no masking agent
  Organoleptic result: 5.4

## CC1(C)[C@@H](O[C@H]2O[C@H](C(=O)O)[C@@H](O)[C@H](O)[C@H]2O[C@@H]2O[C@H](C(=O)O)[C@@H](O)[C@H](O)[C@H]2O)CC[C@]2(C)[C@H]3C(=O)C=C4[C@@H]5C[C@@](C)(C(=O)O)CC[C@]5(C)CC[C@@]4(C)[C@]3(C)CC[C@@H]12 [Glycyrrhizinate, monoammonium glycyrrhizinate]
[2]; [9]
  Organoleptic results: 2.4
[1]; test compound 250 ppm + 200 ppm LAE in juice drink
  Organoleptic results: 2.3
[1]; [10]
  Organoleptic results: 2
[1]; [11]
  Organoleptic results: 2

## N[C@@H](CCC(=O)[O-])C(=O)[O-].[Na+].[Na+] [sodium glutamate]
[2]; [9]
  Organoleptic results: 5.4
[1]; [11]
  Organoleptic results: 5.0
[1]; [8]
  Organoleptic results: 4.8

## OC[C@H]1O[C@@H]2O[C@H]3[C@H](O)[C@@H](O)[C@@H](O[C@H]4[C@H](O)[C@@H](O)[C@@H](O[C@H]5[C@H](O)[C@@H](O)[C@@H](O[C@H]6[C@H](O)[C@@H](O)[C@@H](O[C@H]7[C@H](O)[C@@H](O)[C@@H](O[C@H]8[C@H](O)[C@@H](O)[C@@H](O[C@H]1[C@H](O)[C@H]2O)O[C@@H]8CO)O[C@@H]7CO)O[C@@H]6CO)O[C@@H]5CO)O[C@@H]4CO)O[C@@H]3CO [β-cyclodextrin]
[4]; product 2,000 ppm + 7,500 ppm LAE in toothpaste
  Organoleptic result: 2.7
[1]; [11]
  Organoleptic results: 2.1

## CCCCCCCCCCCCOS(=O)(=O)[O-].[Na+] [SDS, sodium dodecyl sulfate]
[5]
  Organoleptic result: 2.9
[2]; test compound 3,320 ppm + 200 ppm MDLA in juice drink
  Organoleptic results: 2.6
[4]; product 1,960 ppm + 7,500 ppm LAE in toothpaste
  Organoleptic result: 2.9
[4]; product 3,330 ppm + 7,500 ppm LAE in toothpaste
  Organoleptic result: 2.8
[1]; test compound 1,330 ppm + 200 ppm LAE in juice drink
  Organoleptic results: 2.9
[1]; test compound 1,960 ppm + 200 ppm LAE in juice drink
  Organoleptic results: 2.3
[1]; test compound 3,320 ppm + 200 ppm LAE in juice drink
  Organoleptic results: 1.6
[3]; cationic surfactant of formula (1) combined only with SDS, cosmetic preparation
  taste of the toothpaste: smooth taste

## OC[C@@H](O)[C@@H](O[C@@H]1O[C@H](CO)[C@H](O)[C@H](O)[C@H]1O)[C@H](O)[C@@H](O)CO [Lactitol, lactitol]
[4]; [12]
  Organoleptic result: 5.1
[3]
  neutralisation of the bitter taste of the cationic surfactant: does not neutralise the bitter taste

## OC[C@@H](O)[C@@H](O)[C@H](O)[C@@H](O)CO [Sorbitol, sorbitol]
[4]; [12]
  Organoleptic result: 4.9
[3]
  neutralisation of the bitter taste of the cationic surfactant: does not neutralise the bitter taste

## CC(=O)[O-].[Na+] [sodium acetate]
[2]; [6]
  Organoleptic results: 2.8
[1]; [11]
  Organoleptic results: 2.8
[1]; [7]
  Organoleptic results: 2.3

## OC[C@@H](O)[C@@H](O)[C@H](O)[C@H](O)CO [mannitol]
[3]
  neutralisation of the bitter taste of the cationic surfactant: does not neutralise the bitter taste

## lysozyme
[2]; test compound 2,500 ppm + 200 ppm MDLA in juice drink
  Organoleptic results: 2.7
[1]; [10]
  Organoleptic results: 2.5
[1]; test compound 2,500 ppm + 200 ppm LAE in juice drink
  Organoleptic results: 2

From patent US20100028325A1, “New Combination Of Cationic Preservatives With Taste-Masking Components” (LABORATORIOS MIRET, S.A., priority 2007, published 2010)
